Experimental data reported in paper PMC10362580, “Patient-derived organoids for precision oncology: a platform to facilitate clinical decision making” (BMC Cancer, 2023).
Blank lines part the entries; values can stand above or below the molecule they belong to.

Columns and labels:
[1] = test system: patient-derived primary ovarian cancer organoids (Tumor Organoid); assay: PDO drug sensitivity and resistance testing (CellTiter-Glo), ovarian tumor organoids; assay type: cell-based, human; settings: for IC50: Homo sapiens; for Viability of organoids (CTG assay): ovarian cancer organoids
Method: (§1) Patient-derived tumor organoid was dissociated to single cells after seven days in culture. Epithelial Cells (from tumor and adjacent normal tissues) in combination with patient-derived isogenic adipose-derived Mesenchymal Stem Cells: iECs: MSCs (3:1:1) were seeded at a density of 5000 cells per well in 96-well clear bottom microplates. Multicellular organoids were allowed to grow for seven days. Breast and ovarian organoids were imaged every day and fed every alternate day with aforementioned Breast organoid medium and Ovarian organoid medium respectively. […] Organoids were subsequently incubated for […]; DMSO only- vehicle control and media only- negative control was used to set the baseline. After 0, 1, 7, 14 and 21 days ATP levels were measured with the CellTiter-Glo (Promega, Wisconsin, USA). All screenings were performed in triplicates. Data were analyzed using GraphPad Prism 6. Drug dose–response curves were visualized using […] analysis [setting: log (inhibitor) versus response, least-squares (ordinary) fit; top constraint 100%]. Concentrations where 50% cell viability (IC50-value) was reached were interpolated. The area under the curve (AUC) was approximated between the lowest and highest concentrations screened in the actual assay with the trapezoid rule for numerical integration. The dose–response curves were plotted as the percentage of the cell viability against the logarithm of drug concentrations in µM and were fitted to estimate the IC50.
(§2) We developed a protocol to culture and expand organoids from tissues collected from ovarian cancer patients. […] We performed drug sensitivity and resistance test (DSRT) using 2 FDA-approved commonly used therapeutic drugs paclitaxel and doxorubicin. Depending on the properties of the individual drugs, the concentrations ranged from 0.001 µM to 1000 µM (Fig. 6).
(§3) Following seven days incubation, organoid cultures were manually inspected using a phase-contrast microscope to check cell health and morphology prior to the addition of drugs. CellTiter-Glo® 2.0 determines the number of viable cells in a well, based on the quantification of ATP present, an indicator of metabolically viable cells. Total cell count was measured by CellTiter-Glo® 2.0, which causes cell lysis and produces a luminescence signal proportional to the amount of ATP present. Following completion of the above quality metrics, the data was normalized or the raw intensity data was used for curve-fitting. • Data normalization: Normalization was completed using the following calculation: (Raw intensity signal- Mean of positive control/ Mean of negative control-Mean positive control)

[2] = test system: Normal Organoid from normal adjacent tissue of ovarian cancer patients; assay: PDO drug sensitivity and resistance testing (CellTiter-Glo), ovarian normal adjacent tissue organoids; assay type: cell-based; settings: Homo sapiens
Method: as §1, §2, §3

[3] = test system: patient-derived breast cancer organoids (Tumor Organoid); assay: PDO drug sensitivity and resistance testing (CellTiter-Glo), breast tumor organoids; assay type: cell-based, human; settings: for IC50: Homo sapiens; for Viability of organoids (CTG assay): breast cancer organoids; for Response of breast cancer PDOs to treatment: few breast cancer PDOs
Method: as §1
(§4) We investigated BC organoids in response to standard medications in order to assess their potential as in vitro disease models. Towards this, PDOs were treated with doxorubicin and paclitaxel (commonly used chemotherapeutic drugs).
as §3

[4] = test system: Normal Organoid from normal adjacent tissue of breast cancer patients; assay: PDO drug sensitivity and resistance testing (CellTiter-Glo), breast normal adjacent tissue organoids; assay type: cell-based; settings: Homo sapiens
Method: as §1, §4, §3

[5] = test system: iPSCs-derived cardiomyocytes; assay: Calcium transient assay (cardiotoxicity); assay type: cell-based, human; settings: 1 µM; cardiomyocytes from healthy donor, breast cancer and ovarian cancer patient
Method: To initiate cardiac differentiation, 10,000 cells/cm^2 of passage 11–20 single cell suspension of iPSCs were seeded on matrigel coated plates in mTeSR™1 media and incubated overnight to obtain 95% confluent culture. Once cells reached > 95% confluence, RPMI 1648 medium (Gibco)/B-27 Supplement Minus Insulin (Gibco)/ 100 ng/ml Activin A (Gibco) + Matrigel (Corning) + […] CHIR9902 (Stem Cell Technologies) was added. CHIR9902 only for 24 h. Day 02–04: RPMI 1648 medium (Gibco)/B-27 Supplement Minus Insulin (Gibco)/ activin A (Gibco) (100 ng/ml) and BMP4 (Gibco) (10 ng/ml) and bFGF. Day 05–06: RPMI 1640 (with L-glutamine) with 2% B27 minus insulin supplement, 1 µl IWR-1 (5 µM final). Day 07–09: RPMI 1640 with L-Glutamine (Gibco) with 2% B27 with insulin supplement (Gibco). Day10: At day 10 post-differentiation, changed the medium to RPMI 1648-low glucose medium (Gibco) and maintained the cells in this medium for 3 days (until day 13). Day 13: Returned cells to RPMI/B27 medium-with insulin (Gibco). At day 14, changed the medium back to RPMI-low glucose medium (Gibco) for a second glucose deprivation cycle. Cultured the cells in this low glucose state for 3 more days. Most of the non-cardiomyocytes will die in this low-glucose culture condition. At day 17, changed the medium to 2 ml of RPMI/B27 medium with insulin. The remaining cells will be highly purified cardiomyocytes. […]

[6] = test system: iPSCs-derived hepatocytes; assay: Cytoskeleton disruption in hepatocytes (hepatotoxicity); assay type: cell-based, human; settings: 0.1 ug/ml; hepatocytes from healthy donors, breast cancer and ovarian cancer patients
Method: To initiate hepatic differentiation, 10, 000 cells/cm^2 of passage 11 (P11) single cell suspension of iPSCs were seeded on matrigel coated plates in mTeSR™1 media and incubated overnight to obtain 95% confluent culture. Once cells reached > 95% confluence, RPMI media (Gibco) + 2% B27 supplement (Gibco) + 100 ng/ml Activin A (Gibco) + 3 µM CHIR99021 (Stem Cell Technologies) + 2% Matrigel (Corning) was added. Day 1 to 4: RPMI (Gibco) media + 2% B27 supplement (Gibco) + 100 ng/ml Activin A (Sigma). Day 5 to 10: RPMI (Gibco) media + 2% B27 supplement (Gibco) + 10 ng/ml bFGF (Sigma) + 20 ng/ml BMP4 (Sigma) + 0.5% DMSO (Sigma); Day 11 to 15: RPMI 1648 (Gibco) media + 2% B27 supplement (Gibco) + 20 ng/ml HGF (Sigma) + 0.5% DMSO (Sigma); Day 16 to 21: RPMI 1648 (Gibco) media + 2% B27 supplement (Gibco) + 20 ng/ml Oncostatin M (Gibco) + 100 nM Dexamethasone + 20 ng/ml HGF (Sigma) + 0.5% DMSO (Sigma). […] The presence of intracellular glycogen in hepatocytes was assessed by periodic acid–Schiff’s (PAS) staining and nuclei were counterstained with Mayer’s haematoxylin [42]. […]

[7] = test system: iPSCs-derived forebrain motor neurons; assay: Neurite outgrowth assay (neurotoxicity); settings: 1 µM; neurons from healthy donor, breast cancer and ovarian cancer patient
Method: Neurite outgrowth assay was performed to determine neurotoxicity. […] We tested neurotoxic chemotherapeutic drug on iPSC-derived neurons- control (healthy donor), breast cancer and ovarian cancer patients [46–48] using ImageXpress® Nano Automated Imaging System (Molecular Devices).

[8] = 168 h, Ovarian Cancer Sample 1, Tumor Organoid, day 7, CTG
[9] = 168 h, Ovarian Cancer Sample 2, Tumor Organoid, day 7, CTG
[10] = 168 h, Ovarian Cancer Sample 3, Tumor Organoid, day 7, CTG
[11] = 336 h, Ovarian Cancer Sample 1, Tumor Organoid, day 14, CTG
[12] = 336 h, Ovarian Cancer Sample 2, Tumor Organoid, day 14, CTG
[13] = 336 h, Ovarian Cancer Sample 3, Tumor Organoid, day 14, CTG
[14] = 504 h, Ovarian Cancer Sample 1, Tumor Organoid, day 21, CTG
[15] = 504 h, Ovarian Cancer Sample 2, Tumor Organoid, day 21, CTG
[16] = 504 h, Ovarian Cancer Sample 3, Tumor Organoid, day 21, CTG
[17] = 168 h, Ovarian Cancer Sample 1, Normal Organoid, day 7, CTG
[18] = 168 h, Ovarian Cancer Sample 2, Normal Organoid, day 7, CTG
[19] = 168 h, Ovarian Cancer Sample 3, Normal Organoid, day 7, CTG
[20] = 336 h, Ovarian Cancer Sample 1, Normal Organoid, day 14, CTG
[21] = 336 h, Ovarian Cancer Sample 2, Normal Organoid, day 14, CTG
[22] = 336 h, Ovarian Cancer Sample 3, Normal Organoid, day 14, CTG
[23] = 504 h, Ovarian Cancer Sample 1, Normal Organoid, day 21, CTG
[24] = 504 h, Ovarian Cancer Sample 2, Normal Organoid, day 21, CTG
[25] = 504 h, Ovarian Cancer Sample 3, Normal Organoid, day 21, CTG
[26] = 168 h, Breast Cancer Sample 1, Tumor Organoid, day 7, CTG
[27] = 168 h, Breast Cancer Sample 2, Tumor Organoid, day 7, CTG
[28] = 168 h, Breast Cancer Sample 3, Tumor Organoid, day 7, CTG
[29] = 336 h, Breast Cancer Sample 1, Tumor Organoid, day 14, CTG
[30] = 336 h, Breast Cancer Sample 2, Tumor Organoid, day 14, CTG
[31] = 336 h, Breast Cancer Sample 3, Tumor Organoid, day 14, CTG
[32] = 504 h, Breast Cancer Sample 1, Tumor Organoid, day 21, CTG
[33] = 504 h, Breast Cancer Sample 2, Tumor Organoid, day 21, CTG
[34] = 504 h, Breast Cancer Sample 3, Tumor Organoid, day 21, CTG
[35] = 168 h, Breast Cancer Sample 1, Normal Organoid, day 7, CTG
[36] = 168 h, Breast Cancer Sample 2, Normal Organoid, day 7, CTG
[37] = 168 h, Breast Cancer Sample 3, Normal Organoid, day 7, CTG
[38] = 336 h, Breast Cancer Sample 1, Normal Organoid, day 14, CTG
[39] = 336 h, Breast Cancer Sample 2, Normal Organoid, day 14, CTG
[40] = 336 h, Breast Cancer Sample 3, Normal Organoid, day 14, CTG
[41] = 504 h, Breast Cancer Sample 1, Normal Organoid, day 21, CTG
[42] = 504 h, Breast Cancer Sample 2, Normal Organoid, day 21, CTG
[43] = 504 h, Breast Cancer Sample 3, Normal Organoid, day 21, CTG

IC50 [1, 8]: 847 µM
IC50 [1, 9]: 2450 µM
IC50 [1, 10]: 987 µM
IC50 [1, 11]: 877 µM
IC50 [1, 12]: 2210 µM
IC50 [1, 13]: 1040 µM
IC50 [1, 14]: 1.02 µM
IC50 [1, 15]: 1930 µM
IC50 [1, 16]: 98.1 µM
IC50 [3, 26]: 902 µM
IC50 [3, 27]: 976 µM
IC50 [3, 28]: 938 µM
IC50 [3, 29]: 117 µM
IC50 [3, 30]: 1060 µM
IC50 [3, 31]: 92.2 µM
IC50 [3, 32]: 125 µM
IC50 [3, 33]: 97.6 µM
IC50 [3, 34]: 9.55 µM
Compound: COc1cccc2c1C(=O)c1c(O)c3c(c(O)c1C2=O)C[C@@](O)(C(=O)CO)C[C@@H]3O[C@H]1C[C@H](N)[C@H](O)[C@H](C)O1 [Doxorubicin]
Viability of organoids (CTG assay) [1]: significantly decreased the viability of organoids
IC50 [2, 17]: 96.2 µM
IC50 [2, 18]: 2340 µM
IC50 [2, 19]: 102 µM
IC50 [2, 20]: 8.92 µM
IC50 [2, 21]: 2250 µM
IC50 [2, 22]: 8.89 µM
IC50 [2, 23]: 0.0119 µM
IC50 [2, 24]: 1160 µM
IC50 [2, 25]: 9.29 µM
Viability of organoids (CTG assay) [3]: significantly decreased the viability of organoids
Response of breast cancer PDOs to treatment [3]: resistant
IC50 [4, 35]: 96.6 µM
IC50 [4, 36]: 859 µM
IC50 [4, 37]: 955 µM
IC50 [4, 38]: 92 µM
IC50 [4, 39]: 1010 µM
IC50 [4, 40]: 96.4 µM
IC50 [4, 41]: 0.955 µM
IC50 [4, 42]: 9.53 µM
IC50 [4, 43]: 10.2 µM
Calcium oscillation/contraction pattern sensitivity, donor comparison [5]: Ovarian cancer patient’s cardiomyocytes was found more sensitive to Doxorubicin followed by breast cancer patient and healthy donor

Compound: C/C1=C/C(=O)O[C@@H]2C[C@@H](CC[C@H](C)/C=C\C=C\CC1)O[C@@](O)([C@@H]1CSC(=O)N1)C2 [Latrunculin a]
Cytoskeleton disruption sensitivity, donor comparison [6]: Ovarian cancer patient’s hepatocytes were found more sensitive to Latrunculin followed by breast cancer patient and healthy donor

IC50 [1, 8]: 16.7 µM
IC50 [1, 9]: 940 µM
IC50 [1, 10]: 2020 µM
IC50 [1, 11]: 20 µM
IC50 [1, 12]: 96 µM
IC50 [1, 13]: 945 µM
IC50 [1, 14]: 0.588 µM
IC50 [1, 15]: 9.74 µM
IC50 [1, 16]: 97.6 µM
IC50 [3, 26]: 83.6 µM
IC50 [3, 27]: 874 µM
IC50 [3, 28]: 849 µM
IC50 [3, 29]: 96.4 µM
IC50 [3, 30]: 103 µM
IC50 [3, 31]: 975 µM
IC50 [3, 32]: 94.9 µM
IC50 [3, 33]: 107 µM
IC50 [3, 34]: 8.95 µM
Compound: CC(=O)O[C@H]1C(=O)[C@@]2(C)[C@H]([C@H](OC(=O)c3ccccc3)[C@]3(O)C[C@H](OC(=O)[C@H](O)[C@@H](NC(=O)c4ccccc4)c4ccccc4)C(C)=C1C3(C)C)[C@]1(OC(C)=O)CO[C@@H]1C[C@@H]2O [Paclitaxel]
Viability of organoids (CTG assay) [1]: significantly decreased the viability of organoids
IC50 [2, 17]: 22.7 µM
IC50 [2, 18]: 1240 µM
IC50 [2, 19]: 2120 µM
IC50 [2, 20]: 0.625 µM
IC50 [2, 21]: 76.7 µM
IC50 [2, 22]: 1010 µM
IC50 [2, 23]: 0.617 µM
IC50 [2, 24]: 89 µM
IC50 [2, 25]: 97.6 µM
Viability of organoids (CTG assay) [3]: significantly decreased the viability of organoids
Response of breast cancer PDOs to treatment [3]: sensitive
IC50 [4, 35]: 7.89 µM
IC50 [4, 36]: 947 µM
IC50 [4, 37]: 95.1 µM
IC50 [4, 38]: 8.53 µM
IC50 [4, 39]: 980 µM
IC50 [4, 40]: 100 µM
IC50 [4, 41]: 0.955 µM
IC50 [4, 42]: 1000 µM
IC50 [4, 43]: 10.2 µM
Neurite outgrowth sensitivity, donor comparison [7]: Ovarian cancer patient’s neurons were found more sensitive to paclitaxel followed by breast cancer patient and healthy donor
